Reference: patent US8927724B2, “Isoxazole beta-lactamase inhibitors” (priority 2012, dated 2015)
Structures can show the parent of a compound that is named as a salt.

Assays:
[1] = system: bacterial strains that express the class D cephalosporinase OXA-15; experiment: Synergy MIC / standard BLI potentiation MIC assay, strains expressing OXA-15; format: cell-based, E. coli; settings: in the presence of a β-lactam; comparator Avibactam (CCC)
Procedure: (§1) The experimental protocol was performed according to Clinical and Laboratory Standards Institute (CLSI) guidelines with modifications as described below (CLSI guidelines can be derived from the CLSI document M07-A9 published in January 2012: “Methods for Dilution Antimicrobial Susceptibility Tests for Bacteria That Grow Aerobically; Approved Standard-Ninth Edition”).
(§2) To prepare for MIC testing, frozen glycerol stocks of clinical isolates (Klebsiella pneumoniae, Eschericia coli, Enterobacter spp, Citrobacter spp, or Pseudomonas aeruginosa) were used to streak for isolated colonies on rich, non-selective, tryptic soy agar containing 5% sheep's blood (TSAB). Frozen glycerol stocks of laboratory engineered, isogenic E. coli strains, which contain cloned β-lactamase expressing plasmids were used to streak for isolated colonies on rich, selective LB agar supplemented with 25 μg/mL tetracycline to maintain the plasmid. All strains were incubated at 37° C. for 18-24 hrs.
(§3) On the day of testing, primary cultures were started by scraping off 5-10 colonies from the TSAB plates containing clinical strains or the tetracycline supplemented LB plates containing engineered strains. The clinical strain material was suspended in ˜5 mL of cation adjusted Mueller Hinton Broth (CAMHB) in 14 mL culture tubes. The engineered strain material was suspended in CAMHB (supplemented with 25 μg/mL tetracycline) in 14 mL culture tubes. All strains were incubated at 37° C. with aeration (200 rpm) for ˜2 hrs until the optical density at 600 nm (OD600) was >0.1.
(§4) The two compound components of the assay were each diluted in CAMHB and added to the 96-well broth microdilution assay plates. 50 μL of the β-lactam was added to each well of the assay plate in 2-fold dilutions with final concentrations ranging from 128 to 0.13 μg/mL. 25 μL of the BLI compound was added to all wells in the broth microdilution plates at a final concentration of 4 μg/mL. Inoculum cultures were prepared by standardizing the primary cultures to OD600=0.1 and then adding 20 μL of the adjusted primary culture per 1 mL CAMHB for clinical strains or CAMHB (supplemented with tetracycline at 100 μg/mL) for engineered strains, so that the final inoculum density was ˜10^5 colony forming units per milliliter. Diluted inoculum cultures were used to inoculate 25 μl, per well in 96-well broth microdilution assay plates. The final volume of each well was 100 μL and contained a β-lactam at different concentrations, a BLI compound at 4 μg/mL concentration, the bacterial culture at an OD600 of approximately 0.001 and when necessary tetracycline at 25 μg/mL.
(§5) Plates were incubated for 18-20 hours at 37° C. with aeration (200 rpm). Following incubation, growth was confirmed visually placing plates over a viewing apparatus (stand with a mirror underneath) and then OD600 was measured using a SpectraMax 340PC384 plate reader (Molecular Devices, Sunnyvale, Calif.). Growth was defined as turbidity that could be detected with the naked eye or achieving minimum OD600 of 0.1. MIC values were defined as the lowest concentration producing no visible turbidity.
The synergy MIC (sMIC) assay determines the concentration of the BLI required to potentiate the activity of a fixed concentration of a β-lactam antibiotic against β-lactamase producing bacterial strains. […]

[2] = system: bacterial strains that express KPC β-lactamases; experiment: Synergy MIC / standard BLI potentiation MIC assay, strains expressing KPC β-lactamases; format: cell-based; settings: at least one KPC strain and/or better spectrum; in the presence of a β-lactam
Procedure: as §1, §2, §3, §4, §5
The synergy MIC (sMIC) assay determines the concentration of the BLI required to potentiate the activity of a fixed concentration of a β-lactam antibiotic against β-lactamase producing bacterial strains. The experimental protocol was performed according to Clinical and Laboratory Standards Institute (CLSI) guidelines with modifications as described below (CLSI guidelines can be derived from the CLSI document M07-A9 published in January 2012: “Methods for Dilution Antimicrobial Susceptibility Tests for Bacteria That Grow Aerobically; Approved Standard-Ninth Edition”). […]

KPC-2 β-lactamase = KPC-2 β-lactamase (Klebsiella pneumoniae, UniProt Q9F663); experiment: Inhibition kinetics of KPC-2 with nitrocefin as reporter substrate; format: biochemical, K. pneumoniae; settings: KPC-2, 100 μM nitrocefin, 1×PBS pH 7.4, 25° C.
Chain of KPC-2 β-lactamase (Q9F663 25-293 limits assumed): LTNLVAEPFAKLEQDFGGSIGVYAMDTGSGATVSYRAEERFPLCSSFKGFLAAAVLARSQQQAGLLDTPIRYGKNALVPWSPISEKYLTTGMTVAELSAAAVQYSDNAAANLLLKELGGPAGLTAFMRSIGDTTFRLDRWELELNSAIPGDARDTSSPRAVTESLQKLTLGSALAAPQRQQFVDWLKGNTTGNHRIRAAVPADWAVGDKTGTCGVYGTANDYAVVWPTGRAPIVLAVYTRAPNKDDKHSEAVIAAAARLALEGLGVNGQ
Procedure: Inhibition or inactivation of KPC-2 by test inhibitors was assessed using 100 μM nitrocefin (NCF) as a reporter substrate. Assays were performed in 1×PBS pH 7.4, 0.1 mg/ml BSA, in 96-well half area plates, 50 μl reaction volume. NCF was dissolved in DMSO and diluted in assay buffer. Test inhibitors were dissolved in water or DMSO and serially diluted in the assay with final concentrations between […] The enzyme activity in the presence of varying concentrations of test inhibitor was determined by monitoring the hydrolysis of NCF spectrophotometrically at 486 nm, for 5 minutes, 25° C., using a SpectraMax Plus384 microplate reader with SoftMax Pro software (Molecular Devices). Data analysis was performed using GraphPad Prism (GraphPad Software, Inc.).
Progress curves were fit to a first-order rate decay equation (Eq. 1) to determine kobserved (kobs).
kobs vs. inhibitor concentration [I] curves were then fit to Eq.2 to determine the inhibitor dissociation constant (K) and the first order rate constant of enzyme inactivation at infinite inhibitor concentration (kinact). […] Yt=V0*(1−e^(−kobs^*t))/kobs Eq. 1 Where Y is the absorbance at time t, Vo is the uninhibited enzyme velocity, kobs is the observed rate constant of the enzyme inactivation. kobs=kinact*[I]/([I]+K(1+S/Km)) Eq. 2 Where S is the NCF concentration, Km is the KPC-2 Km for NCF

Row | Structure (SMILES) | activity against bacterial strains that express OXA-15, compared with Avibactam [1] | activity and/or spectrum of activity against bacterial strains that express KPC β-lactamases, compared with Avibactam [2] | inactivation efficiency (kinact/K) (KPC-2 β-lactamase)
1 | N=C(N)NCC(O)c1cc([C@@H]2CC[C@@H]3CN2C(=O)N3OS(=O)(=O)O)no1 (single isomer, unassigned) [Compound 611, (2S,5R)-2-(5-((R*)-2-guanidino-1-hydroxyethyl)isoxazol-3-yl)-7-oxo-1,6-diazabicyclo[3.2.1]octan-6-yl hydrogen sulfate] | more active than Avibactam | more active than Avibactam | –
2 | NCCc1cc([C@@H]2CC[C@@H]3CN2C(=O)N3OS(=O)(=O)O)no1 [Compound 602, (2S,5R)-2-(5-(2-aminoethyl)isoxazol-3-yl)-7-oxo-1,6-diazabicyclo[3.2.1]octan-6-yl hydrogen sulfate] | – | more active than Avibactam | 1-99 mM^−s^−1
3 | N=C(N)NCc1cc([C@@H]2CC[C@@H]3CN2C(=O)N3OS(=O)(=O)O)no1 [Compound 603, (2S,5R)-2-(5-(guanidinomethyl)isoxazol-3-yl)-7-oxo-1,6-diazabicyclo[3.2.1]octan-6-yl hydrogen sulfate] | more active than Avibactam | more active than Avibactam | –
4 | N=C(N)NCCc1cc([C@@H]2CC[C@@H]3CN2C(=O)N3OS(=O)(=O)O)no1 [Compound 604, (2S,5R)-2-(5-(2-guanidinoethyl)isoxazol-3-yl)-7-oxo-1,6-diazabicyclo[3.2.1]octan-6-yl hydrogen sulfate] | more active than Avibactam | more active than Avibactam | –
5 | CN(Cc1cc([C@@H]2CC[C@@H]3CN2C(=O)N3OS(=O)(=O)O)no1)C(=N)N [Compound 614, (2S,5R)-2-(5-((1-methylguanidino)methyl)isoxazol-3-yl)-7-oxo-1,6-diazabicyclo[3.2.1]octan-6-yl hydrogen sulfate] | more active than Avibactam | more active than Avibactam | –
6 | N=C(N)N[C@H]1C[C@@H](c2cc([C@@H]3CC[C@@H]4CN3C(=O)N4OS(=O)(=O)O)no2)C1 [Compound 617, (2S,5R)-2-(5-((1s,3R)-3-guanidinocyclobutyl)isoxazol-3-yl)-7-oxo-1,6-diazabicyclo[3.2.1]octan-6-yl hydrogen sulfate] | – | more active than Avibactam | –
7 | O=C1N2C[C@@H](CC[C@H]2c2cc(CC3CNC3)on2)N1OS(=O)(=O)O [Compound 618, (2S,5R)-2-(5-(azetidin-3-ylmethyl)isoxazol-3-yl)-7-oxo-1,6-diazabicyclo[3.2.1]octan-6-yl hydrogen sulfate] | more active than Avibactam | more active than Avibactam | –
8 | NCCNCCc1cc([C@@H]2CC[C@@H]3CN2C(=O)N3OS(=O)(=O)O)no1 [Compound 620, (2S,5R)-2-(5-(2-((2-aminoethyl)amino)ethyl)isoxazol-3-yl)-7-oxo-1,6-diazabicyclo[3.2.1]octan-6-yl hydrogen sulfate] | – | more active than Avibactam | –
9 | N=C(N)NCCNCCc1cc([C@@H]2CC[C@@H]3CN2C(=O)N3OS(=O)(=O)O)no1 [Compound 621, (2S,5R)-2-(5-(2-((2-guanidinoethyl)amino)ethyl)isoxazol-3-yl)-7-oxo-1,6-diazabicyclo[3.2.1]octan-6-yl hydrogen sulfate] | – | more active than Avibactam | –
10 | O=C1N2C[C@@H](CC[C@H]2c2cc(CNC3CNC3)on2)N1OS(=O)(=O)O [Compound 622, (2S,5R)-2-(5-((azetidin-3-ylamino)methyl)isoxazol-3-yl)-7-oxo-1,6-diazabicyclo[3.2.1]octan-6-yl hydrogen sulfate] | – | more active than Avibactam | –
11 | O=C1N2C[C@@H](CC[C@H]2c2cc(CCNC3CNC3)on2)N1OS(=O)(=O)O [Compound 623, (2S,5R)-2-(5-(2-(azetidin-3-ylamino)ethyl)isoxazol-3-yl)-7-oxo-1,6-diazabicyclo[3.2.1]octan-6-yl hydrogen sulfate] | – | more active than Avibactam | –
12 | O=C1N2C[C@@H](CC[C@H]2c2cc(COC3CNC3)on2)N1OS(=O)(=O)O [Compound 624, (2S,5R)-2-(5-((azetidin-3-yloxy)methyl)isoxazol-3-yl)-7-oxo-1,6-diazabicyclo[3.2.1]octan-6-yl hydrogen sulfate] | – | more active than Avibactam | –
13 | O=C1N2C[C@@H](CC[C@H]2c2cc(CC3CCNCC3)on2)N1OS(=O)(=O)O [Compound 627, (2S,5R)-7-oxo-2-(5-(piperidin-4-ylmethyl)isoxazol-3-yl)-1,6-diazabicyclo[3.2.1]octan-6-yl hydrogen sulfate] | – | more active than Avibactam | –
